# Laboratory results as given in US6297230A, “Cyanoaziridines for treating cancer” (priority 2000, dated 2001).
# Entries after “also recorded” stand apart in the source; their conditions may differ. Like-named read-outs stand apart in the source and are kept apart here.
# Columns and labels:
# [1] = tested on: OVCAR-3 ovarian carcinoma cells; assay: In vitro antitumor activity, OVCAR-3 ovarian; type: cell-based, human; details: OVCAR3 ovarian
# From the text: (§1) 1) in vitro tumor cell viability assays using MTT and SRB dye reaction endpoints.
# (§2) Sulforhodamine B (SRB) Assay for Adherent Tumor Cells
# (§3) Sulforhodamine B (SRB) is a protein binding aminoxanthene dye with two sulfonic acid groups. (Lillie, R. D., H. J. Conn's Biological Stains, 9th Ed., Baltimore; Williams & Wilkins, 1977.) It quantitates whole cell protein content by the intensity of dye staining and relates this to the number of viable cells. […] The SRB assay is used for cells which normally adhere to surfaces (in this case plastic culture flasks or petri dishes) as part of their requirement for growth and division in vitro. The SRB assay is currently used by the National Cancer Institute in the anticancer drug screening program. (Skehan, et al., J Natl Cancer Inst 82:1107-1112, 1990; Rubinstein, et al., J Natl Cancer Inst 82:1113-1118, 1990.) Methodologic comparisons have shown that SRB results are linear for the number of tumor cells over a 100-fold range, and for protein content determined by a modified Lowry method or Standard Bradford (Bradford, M., Anal Biochem 72:248-254, 1976) methods. […] (Lillie, R. D., H. J. Conn's Biological Stains, 9th Ed., Baltimore; Williams & Wilkins, 1977.)
# (§4) Cell cultures of 10^3 -10^7 cells growing in 96-well plastic microtiter plates are fixed with 50% trichloroacetic acid (TCA) for 30 minutes at 4° C. The cells are then stained with 0.4% (w/v) sulforhodamine B (SRB) dissolved in 1% acetic acid. Unbound dye is removed by 4 washes with 1% acetic acid, and protein-bound dye is extracted with 10 mM unbuffered Tris® base [tris(hydroxymethyl)aminomethane]. The optical density (OD) of this extracted solution is measured at […] in a microtiter plate ultraviolet absorbance detector. Cell viability is expressed as percent of control by dividing the optical densities and multiplying the result by 100.
# (§5) Microculture Tetrazolium (MTT) Assay for Tumor Cells
# (§6) Tumors are disaggregated into single cell suspensions using mechanical, hypoosmotic, and/or enzymatic (trypsin) methods. The cells are plated at a concentration of 3-5×10^4 per […] well into plastic 96-well plates. Growth medium containing 5-10% (vol/vol) heat-inactivated fetal bovine serum and penicillin/streptomycin (both […]) are added prior to incubation at 37° C. for 6 days. Afterwards the medium containing the drug is removed, the cells are centrifuged in fresh medium or phosphate-buffered saline (pH 7.4). A tetrazolium dye, […]-2,5-diphenyl tetrazolium (MTT), is then added. (Mossman, T., J Immunol 65:55-63, 1983.) This dye forms a colored formazan product upon activation by mitochondrial reductases in viable cells. Typically, the formazan product is solubilized in acid-propanol or DMSO. The intensity of the color is proportional to viable cell numbers and this is quantitated by spectrophotometric absorbance at 570 nm on a micro ELISA plate reader. The results are calibrated in % control absorbance from untreated tumor cells. (Alley, et al., Cancer Res 48:589-601, 1988.)
# (§7) Table 3 gives the potencies of the new aziridine-1-carboxamides in a panel of human and murine tumor cells in culture. The tumor cell lines in this table are selected to represent a range of histological and growth phenotypes. Their characteristics are described below.
# 5.0 Human OVCAR-3 Ovarian Carcinoma was originally isolated by Hamilton, et al. Experimental model systems of ovarian cancer; applications to the design and evaluation of new treatment approaches. Seminar in Onocology, 11:285-298, 1984, from a patient with progressive adenocarcinoma of the ovary. This patient had relapsed after receiving a combination chemotherapy regimen containing cyclophosphamide, doxorubicin and cisplatin. […] It is also one of the standard human tumor cell lines used for screening new anticancer agents at the NCI. (Alley, et al., Cancer Res 48:589-601, 1988.)
# [2] = tested on: 8226/S myeloma cells; assay: MTT growth inhibition, parental 8226 myeloma cells; type: cell-based, human; details: for IC50: Table 5, Sensitive (parental) 8226; for Enhanced potency: decrease in IC50 against myeloma cell growth: compared with imexon; for Potency relative to imexon: myeloma cells; for Antitumor effect: parental and imexon-resistant myeloma cells
# Experimental: as §5, §6
# (§8) The following unpublished studies were performed in vitro to develop and characterize a human myeloma cell line with resistance to imexon-induced cytotoxicity. The original (parental) 8226 cell line was developed by Matsuoka, et al. (Matsuoka, et al., Proc Soc Exp Biol Med 125:1246-1250, 1967). It is a lymphoblastoid cell line which stains for lambda light immunoglobulin production. It grows in vitro in suspension culture (non-adherent) and forms tumors when injected into SCID mice. (Skehan, et al., J Natl Cancer Inst 82:1107-1112, 1990.)
# (§9) One exciting feature of our novel compounds is, that they work on imexon-resistant cells. An imexon-resistant 8226 myeloma cell line was selected by continuously exposing cells to gradually increasing concentrations of imexon up to 3.25 mg/mL. This cell line has slightly longer cell doubling time than 8226 sensitive cells (24 vs 20 hours). […] The dose response curve for imexon continuous exposure was determined using MTT assay. Each data point represents the mean of three experiments performed in 8 replicates.
# (§10) We compared IC50 concentrations and there is a 4-fold resistance observed for the 8226/I-R cell line when the cells were continuously exposed to imexon for […] at 37° C. The degree of resistance was relatively unstable in the absence of the drug, with the resistant cells losing substantial resistance when maintained in imexon-free medium for 20 weeks (FIG. 2).
# (§11) IC50 was measured by MTT assay. IC50 refer to the concentration by drug that results in 50% growth inhibition. A minimum of 2 assays were performed for each drug following 250 mg/mL imexon is equivalent to 6.5 cGy radiation in sensitive cells.
# (§12) Using the colorimetric microculture tetrazolium (MTT) assay, imexon and 25-related analogs were studied for tumor growth inhibition in vitro. Imexon-induced DNA single strand breaks were assessed by alkaline elution. Cells were exposed to imexon for 1 hour prior to start of experiment. The fraction of ^14 C-labeled DNA retained on the filter is plotted against the time of elution. The cells included parental 8226 myeloma cells and the 8226 imexon-resistant cells exposed to drug (imexon or analog) continuously for 10 days at 37° C. At the end of the exposure period, the cells were analyzed for viability using the formazan-forming tetrazolium dye (MTT) assay.
# [3] = tested on: 8226/I-R myeloma cells; assay: MTT growth inhibition, imexon-resistant 8226 myeloma cells; type: cell-based, human; details: for Cross-resistance with imexon: 8226 imexon-resistant vs parental; for IC50 / Fold Resistance of IC50 R/IC50 's: Table 5; for IC50: imexon-resistant 8226; for Fold Resistance of IC50 R/IC50 's: imexon-resistant vs sensitive 8226
# Experimental: as §5, §6, §8, §9, §10, §11, §12
# [4] = tested on: WiDr colon cancer cells; assay: In vitro antitumor activity, WiDr colon; type: cell-based; details: Homo sapiens
# From the text: as §1, §2, §3, §4, §5, §6, §7
# 2.1 WiDr: The adenocarcinoma cell line WiDr was originally isolated by Noguchi, et al. from a primary colon tumor specimen from a patient with advanced colon carcinoma. (Noguchi, et al, In Vitro 35(6):401-407, 1979.) The WiDr MITOX cell line was developed for mitoxantrone resistance by growth in serially elevated concentration of mitoxantrone. […] (Dalton, et al., Cancer Res 48:1882-1888, 1988.)
# [5] = Homo sapiens, OVCAR-3, read-out: IC50
Compound,"IC50 [1, 5]","IC50 ([2]; Homo sapiens, read-out: IC50)",Cross-resistance with imexon [3],"IC50 ([3]; Homo sapiens, read-out: IC50)",Fold Resistance of IC50 R/IC50 's [3],IC50 [4],Enhanced potency: decrease in IC50 against myeloma cell growth [2],Potency relative to imexon [2],Antitumor effect [2],IC50 [1],IC50 [2],IC50 [3]
"CNC(=O)N1CC1C#N (stereo not shown) [AMP 403, 2-Cyanoaziridine-1-(N-methyl)carboxamide]",1.7 µg/mL,3.3 µg/mL,lack of significant (>50% IC50 change) cross-resistance with imexon,3.3 µg/mL,1.0,,,,,,,
"N#CC1CN1C(=O)Nc1ccccc1 (stereo not shown) [AMP 404, 2-Cyanoaziridine-1-(N-phenyl)carboxamide]",1.3 µg/mL,1 µg/mL,lack of significant (>50% IC50 change) cross-resistance with imexon,1.5 µg/mL,1.5,0.9 µg/mL,,,,,,
"CCNC(=O)N1CC1C#N (stereo not shown) [AMP 406, 2-Cyanoaziridine-1-(N-ethyl)carboxamide]",2 µg/mL,3.1 µg/mL,,3.6 µg/mL,1.2,5.6 µg/mL,,,,,,
"N#CC1CN1C(=O)Nc1ccc(Cl)cc1Cl (stereo not shown) [AMP 407, 2-Cyanoaziridine-1-[N-(2,4-dichlorophenyl)]carboxamide]",0.6 µg/mL,1.2 µg/mL,,2.4 µg/mL,2.0,,> 40%,,,,,
"CC(C)(C)NC(=O)N1CC1C#N (stereo not shown) [AMP 410, 2-Cyanoaziridine-1-(N-t-butyl)carboxamide]",31.1 µg/mL,20 µg/mL,,36 µg/mL,1.8,30 µg/mL,,,,,,
"N#CC1CN1C(=O)NCc1ccccc1 (stereo not shown) [AMP 412, 2-Cyanoaziridine-1-(N-benzyl)carboxamide]",1 µg/mL,1.8 µg/mL,lack of significant (>50% IC50 change) cross-resistance with imexon; also recorded: no significant cross resistance,2.2 µg/mL,1.2,1.1 µg/mL,,roughly equal potency to imexon,,,,
"N#CC1CN1C(=O)NC1CCCCC1 (stereo not shown) [AMP 413, 2-Cyanoaziridine-1-(N-cyclohexyl)carboxamide]",5.9 µg/mL,7 µg/mL,,19 µg/mL,,0.4 µg/mL,,,,,,
"CCCCNC(=O)N1CC1C#N (stereo not shown) [AMP 414, 2-Cyanoaziridine-1-(N-butyl)carboxamide]",2 µg/mL,2.8 µg/mL,lack of significant (>50% IC50 change) cross-resistance with imexon,2.8 µg/mL,1.0,,,,,,,
"N#CC1CN1C(=O)Nc1ccc([N+](=O)[O-])cc1 (stereo not shown) [AMP 417, 2-Cyanoaziridine-1-[N-(4-nitrophenyl)]carboxamide]",1.5 µg/mL,2.1 µg/mL,lack of significant (>50% IC50 change) cross-resistance with imexon; also recorded: no significant cross resistance,2 µg/mL,0.95,,,roughly equal potency to imexon,,,,
"CCOC(=O)c1ccc(NC(=O)N2CC2C#N)cc1 (stereo not shown) [AMP 419, 2-Cyanoaziridine-1-[N-(4-ethoxycarbonylphenyl)]carboxamide]",1.5 µg/mL,,lack of significant (>50% IC50 change) cross-resistance with imexon,,,,,,,,,
"CCOC(=O)CNC(=O)N1CC1C#N (stereo not shown) [AMP 420, 2-Cyanoaziridine-1-[N-(ethoxycarbonyl)methyl]carboxamide]",10 µg/mL,5 µg/mL,lack of significant (>50% IC50 change) cross-resistance with imexon,6 µg/mL,1.2,,,,,,,
"N#CC1CN1C(=O)Nc1cccnc1 (stereo not shown) [AMP 421, 2-Cyanoaziridine-1-[N-(3-pyridyl)]carboxamide]",1.9 µg/mL,2.2 µg/mL,lack of significant (>50% IC50 change) cross-resistance with imexon,2.8 µg/mL,1.3,,,,,,,
"N#CC1CN1C(=O)Nc1ccc(S(N)(=O)=O)cc1 (stereo not shown) [AMP 422, 2-Cyanoaziridine-1-[N-(4-sulfamylphenyl)]carboxamide]",50 µg/mL,> 100 µg/mL,,< 100 µg/mL,,,,,no antitumor effects even at high concentrations,,,
"N#CC1CN1C(=O)Nc1cccc2ccccc12 (stereo not shown) [AMP 423, 2-Cyanoaziridine-1-[N-(1-naphthyl)]carboxamide]",1.4 µg/mL,1 µg/mL,,2.1 µg/mL,2.1,,> 40%,,,,,
"CC(=O)Oc1ccccc1NC(=O)N1CC1C#N (stereo not shown) [AMP 424, 2-Cyanoaziridine-1-[N-(2-acetoxyphenyl)]carboxamide]",,,,,,,,,no antitumor effects even at high concentrations,> 10 µg/mL,> 100 µg/mL,> 100 µg/mL
"CC(=O)c1cccc(NC(=O)N2CC2C#N)c1 (stereo not shown) [AMP 425, 2-Cyanoaziridine-1-[N-(3-acetylphenyl)]carboxamide]",2.23 µg/mL,1.98 µg/mL,lack of significant (>50% IC50 change) cross-resistance with imexon; also recorded: no significant cross resistance,2.2 µg/mL,1.1,,,roughly equal potency to imexon,,,,
